Assay results from patent US11071731B2, “Allosteric modulators of the mu opioid receptor” (Chiromics, LLC, priority 2017, dated 2021).

What was measured:
[1] = biological target: T1, mu opioid receptor (MOR) (Homo sapiens, UniProt P35372); experiment: PathHunter β-arrestin recruitment assay, PAM mode with EC20 endomorphin-1; assay type: cell-based; details: for EC50: read-out: β-arr. EC50
Method in brief: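 Enzyme fragment complementation read-out: β-gal ED fragment fused to receptor, EA fused to β-arrestin, recruitment restoring β-gal activity detected by chemiluminescence. EC50 and percent maximal response derived for each compound.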

[2] = biological target: T1, mu opioid receptor (MOR); experiment: Hit Hunter cAMP signaling assay (adenylyl cyclase inhibition), PAM mode with EC20 endomorphin-1; assay type: cell-based
[3] = maximal response for β-arrestin recruitment
[4] = adenylyl cyclase inhibition, read-out: cAMP EC50
[5] = maximal response for adenylyl cyclase inhibition
[6] = cAMP EC50, adenylyl cyclase inhibition
[7] = maximal response, β-arrestin recruitment
[8] = maximal response, adenylyl cyclase inhibition

T1 sequence (P35372 whole entry, the tested form may be a part): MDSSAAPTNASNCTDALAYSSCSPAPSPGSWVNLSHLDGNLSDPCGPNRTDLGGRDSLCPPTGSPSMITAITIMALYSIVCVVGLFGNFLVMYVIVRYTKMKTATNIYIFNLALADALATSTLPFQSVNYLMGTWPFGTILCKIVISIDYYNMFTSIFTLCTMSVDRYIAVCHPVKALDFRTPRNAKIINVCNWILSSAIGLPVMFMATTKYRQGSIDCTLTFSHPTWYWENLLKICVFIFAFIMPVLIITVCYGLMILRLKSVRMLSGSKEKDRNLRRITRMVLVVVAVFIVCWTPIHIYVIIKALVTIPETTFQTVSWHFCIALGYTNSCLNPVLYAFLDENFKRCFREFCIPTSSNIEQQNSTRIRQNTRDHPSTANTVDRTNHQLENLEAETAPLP

SMILES	β-arr Max. Resp. [1, 3]	EC50 ([1]; β-arrestin recruitment) [nM]	cAMP Max. Resp. [2, 5]	EC50 [2, 6] [nM]	other results
O=S(=O)(c1ccc(Cl)cc1)N1CCCCC1c1ccc2c(c1)OCO2 (stereo not shown) [compound 44]	F (F represents a maximal response of > 60%)	> 2100	E (E represents a maximal response of 40-60%)		allosteric activity for β-arrestin recruitment ([1]; EC20 endomorphin-1 concentration of 4.5 nM): moderate positive allosteric activity; signaling preference β-arrestin vs cAMP ([1]; comparison of β-arrestin and cAMP assays): equivalent effects on β-arrestin recruitment and cAMP signaling; β-arr. Max Resp. ([1]; maximal response for β-arrestin recruitment, Table 3): 99; EC50 ([1]; β-arrestin recruitment, Table 3): 5670 nM; allosteric activity for cAMP signaling ([2]; EC20 endomorphin-1 concentration of 0.45 nM): moderate positive allosteric activity; EC50 ([2]; adenylyl cyclase inhibition, Table 3, read-out: cAMP EC50): 3740 nM; EC50 [2, 4]: > 2100 nM; cAMP Max Resp. ([2]; maximal response for adenylyl cyclase inhibition, Table 3): 57
Fc1ccc(C(F)(F)F)cc1C1CCCCN1c1ccnc(Cl)n1 (stereo not shown) [compound 403]	D (D represents a maximal response of < 40%)	< 700	D (D represents a maximal response of < 40%)	< 700	
Fc1ccc(Cl)nc1C1CCCCN1c1nc(Cl)ncc1F (stereo not shown) [compound 388]	D (D represents a maximal response of < 40%)	< 700	D (D represents a maximal response of < 40%)	< 700	
Cc1nccc(N2CCCCC2c2cncc(Cl)n2)n1 (stereo not shown) [compound 396]	D (D represents a maximal response of < 40%)	< 700	D (D represents a maximal response of < 40%)	< 700	
Fc1ccc(C2CCCCN2c2nc(Cl)ncc2F)cc1Cl (single isomer, unassigned) [compound 10]	F (F represents a maximal response of > 60%)	< 700	E (E represents a maximal response of 40-60%)	< 700	
Fc1cc(C2CSCCN2c2nc(Cl)ncc2F)cc(C(F)(F)F)c1 (racemic) [Compound 301]	F (F represents a maximal response of > 60%)	700 to 2100	E (E represents a maximal response of 40-60%)		EC50 [2, 4]: < 700 nM
Fc1cnc(Cl)nc1N1C2CCC(C2)C1c1cccc(C(F)(F)F)n1 (stereo not shown) [compound 137]	D (D represents a maximal response of < 40%)	> 2100	D (D represents a maximal response of < 40%)	> 2100	
Cc1cncc(C2CCCCN2c2nc(Cl)ncc2F)c1 (stereo not shown) [compound 330]	D (D represents a maximal response of < 40%)	< 700	D (D represents a maximal response of < 40%)	< 700	
OC1Cc2ccccc2C1N1CCCCC1c1ccc(F)c(Cl)c1 (stereo not shown) [compound 447]		> 2100		> 2100	β-arr Max. Resp. [1, 7]: D (D represents a maximal response of < 40%); cAMP Max. Resp. [2, 8]: D (D represents a maximal response of < 40%)
CC1CC(c2cccc(C(F)(F)F)c2)N(c2nc(Cl)ncc2F)C1 (stereo not shown) [compound 448]		> 2100			β-arr Max. Resp. [1, 7]: F (F represents a maximal response of > 60%); EC50 [2, 4]: > 2100 nM; cAMP Max. Resp. [2, 8]: D (D represents a maximal response of < 40%)
Fc1cc(C2CC(F)(F)CCN2c2nc(Cl)ncc2F)cc(C(F)(F)F)c1 (stereo not shown) [compound 198]	F (F represents a maximal response of > 60%)	700 to 2100	F (F represents a maximal response of > 60%)	700 to 2100	
Fc1ccc(Cl)cc1CN1CCOCC1c1cccc(C(F)(F)F)n1 (racemic) [Compound 191]	F (F represents a maximal response of > 60%)	700 to 2100	E (E represents a maximal response of 40-60%)		EC50 [2, 4]: 700 to 2100 nM
COC(=O)c1ccc(N2CCCCC2c2cccc(C(F)(F)F)n2)cc1 (stereo not shown) [compound 478]		> 2100		> 2100	β-arr Max. Resp. [1, 7]: F (F represents a maximal response of > 60%); cAMP Max. Resp. [2, 8]: D (D represents a maximal response of < 40%)
Fc1cnc(Cl)nc1N1CCCCC1c1cc(C(F)(F)F)c2[nH]cnc2c1 (stereo not shown) [compound 417]	D (D represents a maximal response of < 40%)	< 700	D (D represents a maximal response of < 40%)	< 700	
Fc1cnc(Cl)nc1N1CCCCC1c1cc(Cl)ccn1 (stereo not shown) [compound 408]	D (D represents a maximal response of < 40%)	< 700	D (D represents a maximal response of < 40%)	< 700	
Fc1c(Cl)ncnc1N1CCCCC1c1cccc(C(F)(F)F)c1 (stereo not shown) [compound 351]	D (D represents a maximal response of < 40%)	< 700	D (D represents a maximal response of < 40%)	< 700	
Oc1cnc2ccc(C3CCCCN3c3nc(Cl)ncc3F)cc2c1 (stereo not shown) [compound 393]	D (D represents a maximal response of < 40%)	< 700	D (D represents a maximal response of < 40%)	< 700	
FC(F)(F)c1cccc(C2CCCCN2Cc2cccc(Cl)c2)n1 (stereo not shown) [compound 170]	F (F represents a maximal response of > 60%)	700 to 2100	E (E represents a maximal response of 40-60%)	< 700	
Fc1ccc(C2CCCCN2c2nc(Cl)ncc2F)cc1C(F)F (stereo not shown) [compound 299]	F (F represents a maximal response of > 60%)	700 to 2100	F (F represents a maximal response of > 60%)	< 700	
O=S(=O)(c1cc(F)ccc1F)N1CCCC(F)C1c1ccc(F)c(Br)c1 (stereo not shown) [Compound 38]		> 2100			EC50 [2, 4]: > 2100 nM
Fc1cnc(Cl)nc1N1CCCCC1c1ccc(Cl)c(Br)c1 (single isomer, unassigned) [compound 125]	F (F represents a maximal response of > 60%)	< 700	F (F represents a maximal response of > 60%)	< 700	
O=S(=O)(c1ccc(Cl)cc1)N1CCCCC1c1ccc2c(c1)CCO2 (racemic) [compound 66]	F (F represents a maximal response of > 60%)	> 2100	E (E represents a maximal response of 40-60%)		EC50 [2, 4]: > 2100 nM
Fc1cccc(C2CCCCN2c2cc(Cl)ncc2F)n1 (stereo not shown) [compound 262]	E (E represents a maximal response of 40-60%)	> 2100	D (D represents a maximal response of < 40%)	> 2100	
O=S(=O)(c1ccc(Cl)cc1)N1CCCCC1c1ccc(Cl)cc1 (racemic) [compound 76]	F (F represents a maximal response of > 60%)	> 2100	D (D represents a maximal response of < 40%)		EC50 [2, 4]: > 2100 nM
Cc1ccc(N2CCCCC2c2ccc(F)c(Cl)c2)cc1 (stereo not shown) [compound 458]		> 2100		> 2100	β-arr Max. Resp. [1, 7]: E (E represents a maximal response of 40-60%); cAMP Max. Resp. [2, 8]: D (D represents a maximal response of < 40%)
COc1ccc(C2C(F)CCCN2c2nc(Cl)ncc2F)cc1Br (stereo not shown) [compound 212]	F (F represents a maximal response of > 60%)	> 2100	E (E represents a maximal response of 40-60%)	> 2100	
Fc1cc(Cl)cc(C2CCCCN2c2nc(Cl)ncc2F)c1 (single isomer, unassigned) [compound 404]	D (D represents a maximal response of < 40%)	< 700	D (D represents a maximal response of < 40%)	< 700	
Fc1cc(C2CCCCN2c2nc(Cl)ncc2F)ccc1Br (stereo not shown) [compound 290]	F (F represents a maximal response of > 60%)	< 700	D (D represents a maximal response of < 40%)	< 700	
Cc1ccc(C2CCCCN2S(=O)(=O)c2ccc(Cl)cc2)cc1Br (racemic) [compound 70]	F (F represents a maximal response of > 60%)	> 2100	E (E represents a maximal response of 40-60%)		EC50 [2, 4]: > 2100 nM
